From PMC2358886, “Evolution of pharmacologic specificity in the pregnane X receptor” (BMC Evolutionary Biology, 2008)
Like-named read-outs stand apart in the source and are kept apart here.

Key:
[1] = molecular target: T1, zebrafish PXR (Danio rerio, UniProt A5WYG8)
T1 sequence (A5WYG8 144-430): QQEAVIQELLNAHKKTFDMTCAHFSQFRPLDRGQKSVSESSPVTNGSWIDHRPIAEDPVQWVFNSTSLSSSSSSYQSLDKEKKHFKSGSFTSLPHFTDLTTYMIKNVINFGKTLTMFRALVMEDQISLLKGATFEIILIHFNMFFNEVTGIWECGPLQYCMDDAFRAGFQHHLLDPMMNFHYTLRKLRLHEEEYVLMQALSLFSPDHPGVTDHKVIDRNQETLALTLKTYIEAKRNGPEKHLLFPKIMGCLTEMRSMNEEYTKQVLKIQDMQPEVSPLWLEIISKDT

[2] = molecular target: T2, human PXR (Homo sapiens, UniProt O75469)
T2 sequence (O75469 1-434): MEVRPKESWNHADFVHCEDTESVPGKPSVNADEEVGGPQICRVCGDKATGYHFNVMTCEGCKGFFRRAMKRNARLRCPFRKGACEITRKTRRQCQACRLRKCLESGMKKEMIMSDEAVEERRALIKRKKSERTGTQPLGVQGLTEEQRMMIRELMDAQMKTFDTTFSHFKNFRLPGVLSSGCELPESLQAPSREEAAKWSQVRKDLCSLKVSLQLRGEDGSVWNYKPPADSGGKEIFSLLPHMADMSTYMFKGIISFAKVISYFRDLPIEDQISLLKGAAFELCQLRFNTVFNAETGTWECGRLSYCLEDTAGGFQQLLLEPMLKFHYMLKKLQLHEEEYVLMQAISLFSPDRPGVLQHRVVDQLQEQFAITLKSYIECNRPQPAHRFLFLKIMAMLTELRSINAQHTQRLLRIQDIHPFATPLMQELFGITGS

[3] = system: HepG2 cells
[4] = molecular target: T2, human PXR; experiment: PXR activation luciferase reporter assay, human PXR in HepG2-NTCP cells; conditions: hPXR Activity
[5] = -log(EC50), EC50 in molar units, activation of zebrafish PXR

Compound	zfPXR Activity [1, 5]	hPXR Activity [2]	Toxicity [3]	also measured
4-Pregnen-20β-ol-3,20-dione-17α-sulfate [PR22]	None	5.73	None	
C[C@]12CCC(=O)C[C@@H]1CC[C@@H]1[C@@H]2CC[C@]2(C)C(=O)CC[C@@H]12 [AN2, 5α-Androstan-3,17-dione]			None	hPXR Efficacy ([2]; human): 0.87
C[C@]12CC[C@H]3[C@@H](CCC4=CC(=O)CC[C@@]43C)[C@@H]1CC[C@@H]2O [AN8, 4-Androsten-17β-ol-3-one]			None	hPXR Efficacy ([2]; human): 0.22
C[C@]12CC[C@H](O)CC1=CC[C@@H]1[C@@H]2CC[C@]2(C)C(=O)CC[C@@H]12 [AN9, 5-Androsten-3β-ol-17-one]		4.49	None	EC50 [1]: 11 to 50 µM; zfPXR Activity [1]: 4.89; zfPXR Efficacy [1]: 0.35; EC50 [2]: 11 to 50 µM; hPXR Efficacy [2]: 0.52
C[C@]12CC[C@H]3[C@@H](CCC4=CC(=O)CC[C@@]43C)[C@@H]1CC[C@H]2O [AN15, 4-Androsten-17α-ol-3-one]			None	hPXR Efficacy ([2]; human): 0.9
C[C@H](CC(=O)O)[C@H]1CC[C@H]2[C@@H]3CC[C@@H]4C[C@H](O)CC[C@]4(C)[C@H]3C[C@H](O)[C@]12C [BI26, 23-Nordeoxycholic acid]	None	4.79	None	
C[C@H](CC(=O)O)[C@H]1CC[C@H]2[C@@H]3[C@H](O)C[C@@H]4C[C@H](O)CC[C@]4(C)[C@H]3C[C@H](O)[C@]12C [BI27, 23-Norcholic acid]	None	4.02	None	
C[C@H](CCCO)[C@H]1CC[C@H]2[C@@H]3[C@H](O)C[C@H]4C[C@H](O)CC[C@]4(C)[C@H]3C[C@H](O)[C@]12C [BI29, 5α-Cholan-3α,7α,12α,-24-tetrol]	None	None	50 µM	
C[C@H](CCCOS(=O)(=O)O)[C@H]1CC[C@H]2[C@@H]3[C@H](O)C[C@H]4CC(=O)CC[C@]4(C)[C@H]3C[C@H](O)[C@]12C [BI32, 5α-Cholan-7α,12α-diol-3-one-24-sulfate]	None	None	None	
C[C@H](CCC(O)C(CO)CO)[C@H]1CC[C@H]2[C@@H]3[C@H](O)C[C@@H]4C[C@H](O)CC[C@]4(C)[C@H]3C[C@H](O)[C@]12C (stereo partly drawn) [BI35, 5β-Cholestan-3α,7α,12α,24,26-hexol]	None	None	100 µM	
C[C@H](CCCC(CO)CO)[C@H]1CC[C@H]2[C@@H]3[C@H](O)C[C@@H]4C[C@H](O)CC[C@]4(C)[C@H]3C[C@H](O)[C@]12C [BI37, 5β-Cholestan-3α,7α,12α,26,27-pentol]	None	None		Toxicity ([3]; human, 24 hr): 50 µM
CC(CO)CCC[C@@H](C)[C@H]1[C@H](O)C[C@H]2[C@@H]3[C@H](O)C[C@H]4C[C@@H](O)CC[C@]4(C)[C@H]3CC[C@]12C (stereo partly drawn) [BI40, 5α-Cholestan-3β,7α,16α,27-tetrol]	None	None		Toxicity ([3]; human, 24 hr): 100 µM
CC(C)CCC[C@@H](C)[C@H]1CC[C@H]2[C@@H]3CC=C4C[C@@H](O)CC[C@]4(C)[C@H]3CC[C@]12C [Cholesterol]				Human PXR EC50 (concentration class, Figure 2A) [2]: Inactive
C[C@]12CC[C@@H]3c4ccc(O)cc4CC[C@H]3[C@@H]1C[C@@H](O)[C@@H]2O [ES3, 1,3,5(10)-Estratrien-3,16α,17β-triol]	None	None		Toxicity ([3]; human, 24 hr): 200 µM
C[C@]12CC[C@@H]3c4ccc(O)cc4CC[C@H]3[C@@H]1C[C@@H](O)C2=O [ES4, 1,3,5(10)-Estratrien-3,16α-diol-17-one]	5.70	5.60	None	zfPXR Efficacy [1]: 0.17
COc1c(O)ccc2c1CC[C@@H]1[C@@H]2CC[C@]2(C)C(=O)CC[C@@H]12 [ES5, 1,3,5(10)-Estratrien-3-ol-4-methoxy-17-one]	5.62	5.40	None	zfPXR Efficacy [1]: 0.19

Compound	zfPXR Activity [1, 5]	hPXR Activity [2]	Toxicity [3]	also measured
C[C@]12CC[C@@H]3c4ccc(OS(=O)(=O)O)cc4CC[C@H]3[C@@H]1CCC2=O [ES8, 1,3,5(10)-Estratrien-17-one-3-sulfate]	None	5.47	None	
C#C[C@]1(O)CC[C@H]2[C@@H]3CCc4cc(O)ccc4[C@H]3CC[C@@]21C [ES11, 1,3,5(10)-Estratrien-17α-ethinyl-3,17β-diol]	None			hPXR Efficacy ([2]; human): 0.68; Toxicity ([3]; human, 24 hr): 200 µM
Nc1cccc(C(=O)O)c1 [MI2, 3-Aminobenzoic acid]	None	None	None	
Cn1c(=O)c2c(ncn2C)n(C)c1=O [MI6, Caffeine]		None		
COc1c(C)c2c(c(O)c1C/C=C(\C)CCC(=O)O)C(=O)OC2 [MI21, Mycophenolic acid]	None	None	None	
CCC1(c2ccccc2)C(=O)NC(=O)NC1=O [MI25, Phenobarbital]			None	hPXR Efficacy ([2]; human): 1.19
O=C1NC(=O)C(c2ccccc2)(c2ccccc2)N1 [MI26, Phenytoin]				zfPXR Activity [1]: None; hPXR Efficacy ([2]; human): 0.52; Toxicity ([3]; human, 24 hr): 200 µM
CC(C)CCC[C@@H](C)[C@H]1CC[C@H]2C3=CC=C4C[C@@H](O)CC[C@]4(C)[C@H]3CC[C@]12C [MI28, Provitamin D3]	None	None	10 µM	
CC(C)[C@@H](C)/C=C/[C@@H](C)[C@H]1CC[C@H]2C3=CC=C4C[C@@H](O)CC[C@]4(C)[C@H]3CC[C@]12C [MI29, Provitamin D2]	None	None	20 µM	
CC1=C(/C=C/C(C)=C/C=C/C(C)=C/CO)C(C)(C)CCC1 [MI31, Retinol]				zfPXR Activity [1]: None; hPXR Efficacy ([2]; human): 0.20; Toxicity ([3]; human, 24 hr): 50 µM
C=C1/C(=C\C=C2/CCC[C@]3(C)[C@@H]([C@H](C)/C=C/[C@H](C)C(C)C)CC[C@@H]23)C[C@@H](O)C[C@@H]1O [MI42, 1α-Hydroxyvitamin D2]	None	None		Toxicity ([3]; human, 24 hr): 50 µM
CC1=CC(=O)c2ccccc2C1=O [MI46, Vitamin K3]				zfPXR Activity [1]: None; hPXR Efficacy ([2]; human): ~0.15; Toxicity ([3]; human, 24 hr): 100 µM
CC(=O)[C@@]1(O)CC[C@H]2[C@@H]3CC=C4C[C@@H](O)CC[C@]4(C)[C@H]3CC[C@@]21C [PR11, 5-Pregnen-3β,17-diol-20-one]	None	4.47	None	EC50 [2]: 11 to 50 µM
C[C@]12CC[C@@H](O)C[C@H]1CC[C@@H]1[C@@H]2[C@@H](O)C[C@@]2(C)[C@H]1CC[C@]2(O)[C@@H](O)CO [PR17, 5β-Pregnan-3α,11β,17,20α-21-pentol]	3.95	4.33	200 µM	zfPXR Efficacy ([1]; relative to 20 μM 5α-androstan-3α-ol, assigned an efficacy of 1.0): 0.98
C[C@@H]1C[C@H]2[C@@H]3CCC4=CC(=O)C=C[C@]4(C)[C@@]3(F)[C@@H](O)C[C@]2(C)[C@@]1(O)C(=O)CO [PR29, 1,4-Pregnadien-9α-fluoro-16α-methyl-11β,17,21-triol-3,20-dione]			None	zfPXR Activity [1]: None; EC50 [4]: 40.7 µM
